Measured values reported in ChEMBL document CHEMBL1201862, “PubChem BioAssay data set” (2004).
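How tested: cells in 96-well plates exposed to compound for 48 hours at five concentrations. At the GI50, growth is halved.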 Activity calls are given as the source filed them. Cut-off read from the data, not from the text of the source: active = GI50 up to about 1.1 µM and inactive = higher.

Tests used:
Test in all cases: NCI anticancer screen, dose series, 48 h
[1] = test system: CCRF-CEM
[2] = test system: K562
[3] = test system: A549
[4] = test system: 786-0
[5] = test system: HOP-92
[6] = test system: CAKI-1
[7] = test system: NCI-H522
[8] = test system: IGROV-1
[9] = test system: NCI-H226
[10] = test system: UO-31
[11] = test system: SF-268
[12] = test system: EKVX
[13] = test system: OVCAR-3
[14] = test system: SK-MEL-28
[15] = test system: LOX IMVI
[16] = test system: SNB-75
[17] = test system: RXF 393

Measured: GI50

C=CCSc1ncnc2c1ncn2C1OC(CO)C(O)C1O (stereo unspecified)
inactive: [1] > 100 µM | [2] 5.35 µM | [3] > 100 µM | [4] 79.4 µM | [5] 9.2 µM | [6] 17.7 µM | [7] 11.9 µM | [8] > 100 µM | [9] > 100 µM | [10] 42.1 µM | [11] 34.7 µM | [12] > 100 µM | [13] 11.4 µM | [14] > 100 µM | [15] 4.72 µM | [16] 65.2 µM

COc1cc(OC)c2c(=O)c3cccc([N+](=O)[O-])c3n(C)c2c1
inactive: [1] 60 µM | [2] > 100 µM | [3] > 100 µM | [4] > 100 µM | [6] > 100 µM | [7] 52.4 µM | [8] 61.4 µM | [10] > 100 µM | [17] > 100 µM | [11] > 100 µM | [12] > 100 µM | [14] > 100 µM | [15] 80.4 µM | [16] > 100 µM

O=C1OC(O)c2cc3c(cc21)OCO3 (stereo unspecified)
inactive: [1] > 100 µM | [2] > 100 µM | [3] > 100 µM | [4] > 100 µM | [5] > 100 µM | [6] > 100 µM | [7] > 100 µM | [8] > 100 µM | [10] > 100 µM | [17] > 100 µM | [11] > 100 µM | [12] > 100 µM | [13] > 100 µM | [14] > 100 µM | [15] > 100 µM | [16] > 100 µM

COc1cc(CC(=O)c2cc3c(cc2-c2ccccc2)OCO3)cc(OC)c1OC
active: [5] < 0.01 µM | [15] 0.253 µM
inactive: [1] 13 µM | [2] 15.8 µM | [3] 26.1 µM | [4] > 100 µM | [7] 18.7 µM | [8] 23.1 µM | [9] 14 µM | [10] 19.5 µM | [17] 30.2 µM | [11] 75.7 µM | [12] 10.8 µM | [13] 31 µM | [14] 58.3 µM | [16] 1.18 µM

Cc1ccc(-c2cc(-c3ccco3)nc(N)n2)o1
inactive: [1] > 100 µM | [2] > 100 µM | [3] > 100 µM | [4] > 100 µM | [7] > 100 µM | [8] > 100 µM | [9] > 100 µM | [10] 58.2 µM | [17] > 100 µM | [11] > 100 µM | [12] 65.2 µM | [13] > 100 µM | [14] > 100 µM | [15] > 100 µM | [16] 37.2 µM

Cc1c(C(=O)/C=C/C=C/c2ccccc2)[n+]([O-])c2ccccc2[n+]1[O-]
inactive: [1] 34 µM | [2] 31.8 µM | [3] 22.9 µM | [4] 21.9 µM | [5] 18 µM | [6] 51.8 µM | [7] 15 µM | [8] 26.3 µM | [9] 64.3 µM | [10] 38.4 µM | [11] 29.5 µM | [12] 51.2 µM | [13] 26.1 µM | [14] 18.9 µM | [15] 31.1 µM | [16] 34.2 µM

CCOC(=O)C/N=c1\nc(SC)sc2c(C(=O)OCC)nc(Sc3ccccc3)n12
inactive: [1] 8.13 µM | [2] 16.1 µM | [3] > 10 µM | [4] 21.6 µM | [5] 20.8 µM | [6] 13.4 µM | [7] 7.18 µM | [8] 83.2 µM | [9] 26 µM | [10] 17.8 µM | [11] > 100 µM | [12] 45.1 µM | [13] 30.3 µM | [15] 6.76 µM

Nc1nc2c3nc(Nc4ccccc4)sc3nc(=S)n2c2sc(Nc3ccccc3)nc12
inactive: [2] > 100 µM | [3] > 100 µM | [4] 73.8 µM | [5] 4.66 µM | [7] 8.34 µM | [8] > 100 µM | [9] > 100 µM | [10] > 100 µM | [17] > 100 µM | [11] 12.1 µM | [12] > 100 µM | [14] > 100 µM | [16] 50.8 µM

CC1=C(C)C(=O)c2c(cc3c4ccccc4ccn23)C1=O
inactive: [1] > 10 µM | [2] > 100 µM | [3] > 100 µM | [4] > 100 µM | [7] > 100 µM | [8] > 100 µM | [9] > 100 µM | [10] > 100 µM | [17] > 100 µM | [12] > 100 µM | [13] > 100 µM | [14] > 100 µM | [15] > 100 µM | [16] > 100 µM

CCCCC(C(=O)C(=O)Nc1ccccc1CC)C(=O)C(C)C (stereo unspecified)
inactive: [1] > 100 µM | [2] > 100 µM | [3] > 100 µM | [4] > 100 µM | [5] > 100 µM | [6] > 100 µM | [7] > 100 µM | [8] > 100 µM | [9] > 100 µM | [10] > 100 µM | [11] > 100 µM | [12] > 100 µM | [13] > 100 µM | [15] > 100 µM

Cc1cc2c(=O)cc(-c3ccc(O)cc3)oc2c(C(=O)O)c1C
inactive: [1] > 100 µM | [2] > 100 µM | [3] > 100 µM | [4] > 100 µM | [5] > 100 µM | [6] 22 µM | [7] > 100 µM | [8] > 100 µM | [9] > 100 µM | [10] > 100 µM | [12] > 100 µM | [13] > 100 µM | [14] > 100 µM | [15] > 100 µM | [16] > 100 µM

O=C(COc1ccc(/C=C/C(=O)c2ccc(Cl)cc2)cc1)Nc1c(Cl)cccc1Cl
inactive: [1] 20.8 µM | [3] > 100 µM | [4] > 100 µM | [5] 19.1 µM | [6] > 100 µM | [7] 33.1 µM | [8] > 100 µM | [9] > 100 µM | [10] > 100 µM | [17] 36 µM | [11] > 100 µM | [12] > 100 µM | [13] > 100 µM | [14] > 100 µM | [15] 56.1 µM | [16] 56.4 µM

[O-][S+](Cc1ccccc1)c1nc2ccccc2nc1-c1cccs1 (stereo unspecified)
inactive: [1] 4 µM | [2] 5.38 µM | [3] 15.2 µM | [4] 11.3 µM | [5] 15.6 µM | [7] 1.21 µM | [8] 14.6 µM | [9] 4.06 µM | [10] 24.8 µM | [11] 17.8 µM | [12] 27.5 µM | [13] 11.2 µM | [14] 11.3 µM | [16] 17.6 µM

N#CC1(C#N)C2C=CC(c3coc4cccc2c34)C1(C#N)C#N (stereo unspecified)
inactive: [2] 2.27 µM | [3] 17.9 µM | [4] 20.5 µM | [5] 18 µM | [7] 1.66 µM | [8] 18.7 µM | [9] 19 µM | [10] 12.8 µM | [17] 3.91 µM | [11] 6.27 µM | [12] 15.5 µM | [13] 15.7 µM | [14] 3.66 µM | [15] 15.2 µM | [16] 19.4 µM
active: [1] 1.11 µM

CC/C(=C(\c1ccccc1)c1ccc(OCC[N+](C)(C)C)cc1)c1ccccc1 [TAMOXIFEN METHYL IODIDE]
inactive: [1] 11.5 µM | [2] 5.65 µM | [3] 18.7 µM | [4] 13.7 µM | [6] 17.5 µM | [7] 4.99 µM | [8] 8.81 µM | [9] 10.2 µM | [10] 21.1 µM | [17] 17.1 µM | [11] 15.3 µM | [12] 15.6 µM | [13] 4.76 µM | [14] 8.59 µM | [15] 11.3 µM | [16] 8.85 µM

Cc1ccc2c(c1)-c1c3c(nn1C)-c1ccccc1SC3O2 (stereo unspecified)
inactive: [1] 41 µM | [2] 35.1 µM | [3] 50 µM | [4] > 100 µM | [5] 27 µM | [7] 78.7 µM | [8] > 100 µM | [10] 20.8 µM | [17] > 100 µM | [11] 55.6 µM | [12] 44.5 µM | [13] 85.9 µM | [14] 78.9 µM | [15] > 100 µM | [16] 55.8 µM

CCN(CC)c1ccc(Cl)c2c1C(O)(C(C)C)C2(C)C (stereo unspecified)
inactive: [1] 18.5 µM | [2] 19 µM | [3] 19.9 µM | [4] 14.5 µM | [6] 20 µM | [7] 14.5 µM | [8] 14.7 µM | [9] 16.5 µM | [10] 17.3 µM | [17] 16 µM | [11] 28.2 µM | [13] 12.6 µM | [14] 22.4 µM | [15] 17.3 µM | [16] 18 µM

CC(C)(C)C1=CC(=C(P(=O)(O)O)P(=O)(O)O)C=C(C(C)(C)C)C1=O
inactive: [1] > 50 µM | [2] > 50 µM | [3] > 50 µM | [4] > 50 µM | [5] > 50 µM | [6] > 50 µM | [7] > 50 µM | [8] > 50 µM | [9] > 50 µM | [10] > 50 µM | [11] > 50 µM | [12] > 50 µM | [13] > 50 µM | [14] > 50 µM | [15] > 50 µM | [16] > 50 µM
